As usually defined, the melting point is the temperature of the solid-liquid transition.

Counter-ions that a name gives are not always drawn.

For `Fc1ccc(CCNc2ccnc(NCCc3ccc(F)cc3)n2)cc1` (as salt: HCl) [Example 10, N^2,N^4-Bis[2-(4-fluorophenyl)ethyl]pyrimidine-2,4-diamine], the melting point lay in the range of 177.4 to 179.4 °C.

Compound `FC(F)(F)c1cccc(CNc2ccnc(NCc3cccc(C(F)(F)F)c3)n2)c1` (as salt: HCl) [Example 3, N^2,N^4-Bis[3-(trifluoromethyl)benzyl]pyrimidine-2,4-diamine] returned a melting point of 172 °C. `Clc1ccc(CNc2ccnc(NCc3ccc(Cl)cc3)n2)cc1` (as salt: HCl) [Example 7, N^2,N^4-Bis(4-chlorobenzyl)pyrimidine-2,4-diamine] returned a melting point of 213 to 216 °C. In the case of `Clc1ccc(CNc2ccnc(NCc3ccc(Cl)c(Cl)c3)n2)cc1Cl` (as salt: HCl) [Example 4, N^2,N^4-Bis(3,4-dichlorobenzyl)pyrimidine-2,4-diamine] it was 167 to 170 °C; in that of `Clc1ccc(CCNc2ccnc(NCCc3ccc(Cl)cc3)n2)cc1` (as salt: HCl) [Example 11, N^2,N^4-Bis[2-(4-chlorophenyl)ethyl]pyrimidine-2,4-diamine], 201 to 204 °C. As for `CC(Nc1ccnc(NC(C)c2ccc(F)cc2)n1)c1ccc(F)cc1` (stereo not drawn) (as salt: HCl) [Example 5, N^2,N^4-Bis[1-(4-fluorophenyl)ethyl]pyrimidine-2,4-diamine], the figure is 151 to 154 °C.

Values taken from patent publication US20090124645A1, “Novel Pyrimidine-2,4-Diamine Derivatives and their Use as Modulators of Small-Conductance Calcium-Activated Potassium Channels” (NeuroSearch A/S, priority 2005, published 2009).
